pKi: −log10 of the molar value. Peptide text beside a SMILES is read from it.
How the values were obtained:
[1] = Rat feeding study: food intake and body weight change; format: in vivo; settings: for effect on food intake and rate of change in body weight: rat feeding studies, 0.3 and 1 mg/kg, bremelanotide as positive control; for decrease in food consumption compared to control: rat
Procedure: Change in food intake and body weight was evaluated for selected peptides administered by intravenous (IV) or subcutaneous injection routes. Male Sprague-Dawley rats were obtained from Hilltop Lab Animals, Inc. (Scottsdale, Pa.) or other vendors. Animals were individually housed in conventional polystyrene hanging cages and maintained on a controlled 12 hour on/off light cycle. Water and pelleted food was provided ad libitum. The rats were dosed IV with vehicle or selected peptides (0.3 to 1.0 mg/kg), or dosed subcutaneously with vehicle or selected peptides (doses up to 30 mg/kg). The changes in body weight and food intake for the 24 hour period after dosing was determined. The changes in body weight and food intake for the 48 hour and 72 hour periods after dosing can also be measured to determine reversal of changes in body weight and food intake effects back to baseline levels.

hMC4-R [2] = target: T1, hMC4-R (Homo sapiens (Human), UniProt P32245); assay: Assay for agonist activity (cAMP accumulation, HEK-293 cells expressing hMC4-R); settings: agonist = intrinsic activity 70% or higher; partial agonist 10-70%
T1 sequence (P32245 whole entry): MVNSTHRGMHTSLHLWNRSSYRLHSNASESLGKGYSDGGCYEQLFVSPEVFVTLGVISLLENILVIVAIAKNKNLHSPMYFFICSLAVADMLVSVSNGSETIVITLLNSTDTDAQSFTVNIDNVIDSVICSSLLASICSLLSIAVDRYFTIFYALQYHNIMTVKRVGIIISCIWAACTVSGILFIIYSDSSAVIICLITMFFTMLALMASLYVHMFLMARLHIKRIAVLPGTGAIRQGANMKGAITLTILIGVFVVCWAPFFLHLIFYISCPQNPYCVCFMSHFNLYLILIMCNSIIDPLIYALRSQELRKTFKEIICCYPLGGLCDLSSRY
Procedure: By “intrinsic activity” is meant the maximal functional activity achievable by a compound in a specified melanocortin receptor expressing cell system, such as the maximal stimulation of adenylyl cyclase.
Accumulation of intracellular cAMP was examined as a measure of the ability of the peptides of the present invention to elicit a functional response in HEK-293 cells that express MC4-R. Confluent HEK-293 cells that express recombinant hMC4-R were detached from culture plates by incubation in enzyme-free cell dissociation buffer. Dispersed cells were suspended in Earle's Balanced Salt Solution containing 10 mM HEPES (pH 7.5), 1 mM MgCl2, 1 mM glutamine, 0.5% albumin and 0.3 mM 3-isobutyl-1-methyl-xanthine (IBMX), a phosphodiesterase inhibitor. […] Cells were exposed for 15 minutes at 37° C. to peptides of the present invention dissolved in DMSO (final DMSO concentration of 1%) at a concentration range of 0.05-5000 nM in a total assay volume of 200 μL. […] Data analysis was performed by nonlinear regression analysis with Graph-Pad Prism® software. The maximum efficacies of the test peptides of the present invention were compared to that achieved by the reference melanocortin agonist NDP-αMSH.

[3] = Induction of penile erection in male rats; format: in vivo, rat; settings: for induction of penile erection: male Sprague-Dawley rats, 60 minute observation, No. 154 as trifluoracetic acid salt, No. 155 as acetate salt
Description: Each dose group contained six or seven animals, with video observation for sixty minutes following administration.

hMC4-R [4] = target: T1, hMC4-R; assay: Competitive binding assay using Eu-NDP-α-MSH; settings: Eu-NDP-α-MSH (values marked *); averaged; read-out: MC4-R Ki
Procedure: Alternatively, a competitive inhibition binding assay was performed employing Eu-NDP-α-MSH (PerkinElmer Life Sciences catalog No. AD0225) with determination by time-resolved fluorometry (TRF) of the lanthanide chelate. […] After incubation for 90 minutes at 37° C., the reaction was stopped by filtration over AcroWell 96-well filter plates (Pall Life Sciences). The filter plates were washed 4 times with 200 μL of ice-cold phosphate-buffered saline. DELFIA Enhancement solution (PerkinElmer Life Sciences) was added to each well. […] Each assay was conducted in duplicate and mean values were utilized. Ki values were determined by curve-fitting with Graph-Pad Prism® software using a one-site fixed-slope competition binding model.

hMC4-R [5] = target: T1, hMC4-R; assay: Competitive inhibition binding assay using [I125]-NDP-α-MSH; settings: [I125]-NDP-α-MSH (unmarked values); averaged; read-out: MC4-R Ki
Procedure: A competitive inhibition binding assay is performed using membrane homogenates prepared from HEK-293 cells that express recombinant hMC4-R, hMC3-R, or hMC5-R, and from B-16 mouse melanoma cells (containing endogenous MC1-R). In some instances, HEK-293 cells that express recombinant hMC1-R were employed. In the examples that follow, all MC3-R, MC4-R and MC5-R values are for human recombinant receptors. […] Membrane homogenates were incubated with 0.2 nM (for hMC4-R) 0.4 nM (for MC3-R and MC5-R) or 0.1 nM (for mouse B16 MC1-R or hMC1-R) [I^125]-NDP-α-MSH (Perkin Elmer) and increasing concentrations of test peptides of the present invention in buffer containing 25 mM HEPES buffer (pH 7.5) with 100 mM NaCl, 2 mM CaCl2, 2 mM MgCl2, 0.3 mM 1,10-phenanthroline, and 0.2% bovine serum albumin. After incubation for 60 minutes at 37° C., the assay mixture was filtered and the membranes washed three times with ice-cold buffer. Filters were dried and counted in a gamma counter for bound radioactivity. […] Maximal specific binding (100%) was defined as the difference in radioactivity (cpm) bound to cell membranes in the absence and presence of 1 μM NDP-α-MSH. […] Each assay was conducted in triplicate and the actual mean values are described, with results less than 0% reported as 0%. Ki values for test peptides of the present invention were determined using Graph-Pad Prism® curve-fitting software.

[6] = 1 mg/kg, 0-2, 0-4 and 0-20 hour periods

Structure (SMILES): CC(=O)N[C@@H](CCCNC(=N)N)C(=O)N[C@H]1CC(=O)NCCCC[C@@H](C(N)=O)NC(=O)[C@H](Cc2c[nH]c3ccccc23)NC(=O)[C@H](CCCNC(=N)N)NC(=O)[C@@H](Cc2ccccc2)NC(=O)[C@H](C(C)C)NC1=O [Peptide No. 16, Ac-Arg-cyclo(Asp-Val-D-Phe-Arg-Trp-Lys)-NH2]
- effect on food intake and rate of change in body weight [1]: reduce food intake and decrease the rate of change in body weight
- decrease in food consumption compared to control ([1]; 0.3 mg/kg, 0-2 and 0-4 hour periods): statistically significant
- decrease in food consumption compared to control [1, 6]: statistically significant
- functional classification at MC4-R (agonist / partial agonist) (hMC4-R [2]): partial agonist

Structure (SMILES): CC(=O)N[C@@H](CCCNC(=N)N)C(=O)N[C@H]1CCCNC(=O)CC[C@@H](C(N)=O)NC(=O)[C@H](Cc2c[nH]c3ccccc23)NC(=O)[C@H](CCCNC(=N)N)NC(=O)[C@@H](Cc2ccccc2)NC(=O)[C@H](CC(N)=O)NC1=O [compound 154, Ac-Arg-cyclo(Orn-Asn-D-Phe-Arg-Trp-Glu)-NH2]
- induction of penile erection ([3]; subcutaneous): robustly induce a penile erection

Structure (SMILES): CC(=O)N[C@@H](CCCNC(=N)N)C(=O)N[C@H]1CC(=O)NCCCC[C@@H](C(N)=O)NC(=O)[C@H](Cc2c[nH]c3ccccc23)NC(=O)[C@H](CCCNC(=N)N)NC(=O)[C@@H](Cc2ccccc2)NC(=O)[C@H](CCNC(=O)CN)NC1=O [compound 94, Ac-Arg-cyclo(Asp-Dab(Glycly)-D-Phe-Arg-Trp-Lys)-NH2]
- pKi (hMC4-R [4]): 6.96

Structure (SMILES): CC(=O)N[C@@H](CCCNC(=N)N)C(=O)N[C@H]1CC(=O)NCCCC[C@@H](C(N)=O)NC(=O)[C@H](Cc2c[nH]c3ccccc23)NC(=O)[C@H](CCCNC(=N)N)NC(=O)[C@@H](Cc2ccccc2)NC(=O)[C@H](CCN)NC1=O [compound 141, Ac-Cit-cyclo(Asp-Dab-D-Phe-Arg-Trp-Lys)-NH2]
- pKi (hMC4-R [5]): 8.05

Structure (SMILES): CC(=O)N[C@@H](CCCNC(=N)N)C(=O)N[C@H]1CCCC(=O)NCC[C@@H](C(N)=O)NC(=O)[C@H](Cc2c[nH]c3ccccc23)NC(=O)[C@H](CCCNC(=N)N)NC(=O)[C@@H](Cc2ccccc2)NC(=O)[C@H](Cc2c[nH]cn2)NC1=O [compound 126, Ac-Arg-cyclo(hGlu-His-D-Phe-Arg-Trp-Dab)-NH2]
- functional classification at MC4-R (agonist / partial agonist) (hMC4-R [2]): agonist

Structure (SMILES): CC(=O)N[C@@H](CCCNC(=N)N)C(=O)N[C@H]1CCNC(=O)CCC[C@@H](C(N)=O)NC(=O)[C@H](Cc2c[nH]c3ccccc23)NC(=O)[C@H](CCCNC(=N)N)NC(=O)[C@@H](Cc2ccccc2)NC(=O)[C@H](Cc2c[nH]cn2)NC1=O [compound 128, Ac-Arg-cyclo(Dab-His-D-Phe-Arg-Trp-hGlu)-NH2]
- functional classification at MC4-R (agonist / partial agonist) (hMC4-R [2]): agonist

Structure (SMILES): CC(=O)N[C@H](CCCNC(=N)N)C(=O)N[C@H]1CCCNC(=O)CC[C@@H](C(N)=O)NC(=O)[C@H](Cc2c[nH]c3ccccc23)NC(=O)[C@H](CCCNC(=N)N)NC(=O)[C@@H](Cc2ccccc2)NC(=O)[C@H](Cc2c[nH]cn2)NC1=O [compound 98, Ac-D-Arg-cyclo(Orn-His-D-Phe-Arg-Trp-Glu)-NH2]
- pKi (hMC4-R [4]): 8.40

Structure (SMILES): CC(=O)N[C@@H](CCCNC(=N)N)C(=O)N[C@H]1CCCCNC(=O)C[C@@H](C(N)=O)NC(=O)[C@H](Cc2c[nH]c3ccccc23)NC(=O)[C@H](CCCNC(=N)N)NC(=O)[C@@H](Cc2ccccc2)NC(=O)[C@H](CC(N)=O)NC1=O [compound 155, Ac-Arg-cyclo(Lys-Asn-D-Phe-Arg-Trp-Asp)-NH2] (HELM PEPTIDE1{[ac].R.K.N.[dF].R.W.D.[am]}$PEPTIDE1,PEPTIDE1,3:R3-8:R3$$$V2.0)
- induction of penile erection ([3]; subcutaneous): robustly induce a penile erection

Structure (SMILES): CC(=O)N[C@@H](CCCNC(=N)N)C(=O)N[C@H]1CCNC(=O)CCC[C@@H](C(N)=O)NC(=O)[C@H](Cc2c[nH]c3ccccc23)NC(=O)[C@H](CCCNC(=N)N)NC(=O)[C@@H](Cc2ccccc2)NC(=O)[C@H](CCN)NC1=O [compound 129, Ac-Arg-cyclo(Dab-Dab-D-Phe-Arg-Trp-hGlu)-NH2]
- functional classification at MC4-R (agonist / partial agonist) (hMC4-R [2]): agonist

Structure (SMILES): CC(=O)N[C@@H](CCCNC(=N)N)C(=O)N[C@H]1CC(=O)NCCCC[C@@H](C(N)=O)NC(=O)[C@H](Cc2c[nH]c3ccccc23)NC(=O)[C@H](CCCNC(=N)N)NC(=O)[C@@H](Cc2ccccc2)NC(=O)[C@H](CCC(N)=O)NC1=O [Peptide No. 32, Ac-Arg-cyclo(Asp-Gln-D-Phe-Arg-Trp-Lys)-NH2]
- observed spontaneous erections ([3]; rat, subcutaneous, doses of 1, 3 or 10 mg/kg): increase in observed spontaneous erections
- functional classification at MC4-R (agonist / partial agonist) (hMC4-R [2]): agonist

Structure (SMILES): CC(=O)N[C@@H](CCCNC(=N)N)C(=O)N[C@H]1CC(=O)NCCCC[C@@H](C(N)=O)NC(=O)[C@H](Cc2c[nH]c3ccccc23)NC(=O)[C@H](CCCNC(=N)N)NC(=O)[C@@H](Cc2ccccc2)NC(=O)[C@H](Cc2c[nH]cn2)NC1=O [Peptide No. 1, Ac-Arg-cyclo(Asp-His-D-Phe-Arg-Trp-Lys)-NH2]
- effect on food intake and rate of change in body weight [1]: reduce food intake and decrease the rate of change in body weight
- decrease in food consumption compared to control ([1]; 0.3 mg/kg, 0-2, 0-4 and 0-20 hour periods): statistically significant
- decrease in food consumption compared to control [1, 6]: statistically significant
- observed spontaneous erections compared to vehicle ([3]; rat, IV, doses of 0.3 or 1 mg/kg): statistically significant increase
- functional classification at MC4-R (agonist / partial agonist) (hMC4-R [2]): agonist

Structure (SMILES): CC(=O)N[C@@H](CCCNC(=N)N)C(=O)N[C@H]1CCNC(=O)CCC[C@@H](C(N)=O)NC(=O)[C@H](Cc2c[nH]c3ccccc23)NC(=O)[C@H](CCCNC(=N)N)NC(=O)[C@@H](Cc2ccccc2)NC(=O)[C@H](CCN)NC1=O [compound 136, Ac-Arg-cyclo(Dab-Dab-D-Phe-Arg-Trp-hGlu)-OH]
- pKi (hMC4-R [5]): 7.46

Structure (SMILES): CC(=O)N[C@@H](CCCNC(=N)N)C(=O)N[C@H]1CCCC(=O)NCC[C@@H](C(N)=O)NC(=O)[C@H](Cc2c[nH]c3ccccc23)NC(=O)[C@H](CCCNC(=N)N)NC(=O)[C@@H](Cc2ccccc2)NC(=O)[C@H](CCN)NC1=O [compound 127, Ac-Arg-cyclo(hGlu-Dab-D-Phe-Arg-Trp-Dab)-NH]
- functional classification at MC4-R (agonist / partial agonist) (hMC4-R [2]): agonist

From patent publication US9458201B2, “Melanocortin receptor-specific heptapeptides” (Palatin Technologies, Inc., priority 2009, dated 2016)
